Test results: PMC9023544, “Ketone-selenoesters as potential anticancer and multidrug resistance modulation agents in 2D and 3D ovarian and breast cancer in vitro models” (Scientific Reports, 2022)

Experiments:
HOC = assay: Oxidation stress (ROS), Muse Oxidative Stress Kit; assay type: cell-based, human; details: 1 µM (DMSO 5% V/V), 24 h
Description: Selenoesters (K3, K4, K7) were tested for their ability to generate reactive oxygen species (ROS). HOC was exposed to selenoesters in concentration of 1 µM for 24 h. DMSO (5% V/V) was used as a positive control. The required volume of DMSO (1% V/V) was added to untreated cells. ROS are essential biomolecules in cellular regulation as a part of the defence mechanisms. On the other hand, their participation in cell signalling may affect apoptosis and other death pathways. In the assay, dihydroethidium (DHE) reacts with superoxide anions by forming DNA-binding fluorophore ethidium bromide. Based on fluorescence, the cell population can be distinguished into ROS negative and ROS positive cells containing oxygen radicals.
To determine the oxidation stress potential of selected selenoesters, HOC were seeded into 24-well plates at a density 2 × 10^5 cells/mL for 24 h according to the above mentioned procedure. Afterwards, the plates were washed 1 ×with PBS and fresh DMEM medium containing compounds K3, K4, K7 (final concentration—1 µM) was added for 24 h, except for the positive and negative control. […] as the oxidation stress inductor. After incubation, the cells were washed 1× with PBS and released from the surface by using a trypsin–EDTA solution. After trypsin inhibition by medium addition, the cell suspensions were centrifuged (100×g, 5 min, 25 °C), supernatants were removed, and cell pellets resuspended in 1× assay buffer. All reagents were prepared immediately before use. Afterwards, 10 µL of the cell suspension were mixed with 190 µL of working solution (Muse Oxidative stress reagent) and stained for 30 min at 37 °C. Subsequently, the […] were analysed by Guava Muse Cell Analyzer. Oxidation stress detection was performed following the instructions provided by the manufacturer.

[1] = tested on: HOC/ADR (sub-line resistant to Adriamycin, A2780/ADR); assay: Cytotoxic activity, 2D, resazurin, 72 h; assay type: cell-based, human
Description: (§1) The cytotoxic potential of selenoesters was tested on several cancer cell lines—HOC (human parental ovarian adenocarcinoma, HOC, A2780, Sigma-Aldrich), HOC/ADR (sub-line resistant to Adriamycin, A2780/ADR, Sigma-Aldrich), MCF-7 (human breast adenocarcinoma, ATCC®, HTB-22TM), MCF-7/PAX (resistant sub-line established by gradual adaptation of parental cells to increased concentration of paclitaxel; kindly provided by Division of Cell and Molecular Biology, Third Faculty of Medicine, Charles University, Czech Republic) and on one non-cancerous cell line—HEK293 (human embryonic kidney cell line, Leibniz Institute, DSMZ-German Collection of Microorganisms and Cell Cultures GmbH). All mentioned cell lines were authenticated using short tandem repeat (STR) profiling. Cell lines were cultivated in DMEM medium (10% FBS, 1× antibiotic antimycotic solution), except for HEK293 cell line which was cultivated without antibiotics. In case of the resistant cell lines, the medium was supplemented with a required concentration of cytostatics to maintain resistance (HOC/ADR—100 nM Adriamycin; MCF-7/PAX—300 nM paclitaxel). All cells were cultivated in a CO2 incubator (5% CO2, 37 °C, Thermo Fisher Scientific).
(§2) For the experiment, the cells at passage number 5–20 were seeded at a 1 × 10^5 cells/mL concentration into 96-well plates to 100 µL final volume. The final concentration range of the compounds was 0.63–20 µM. After an incubation of 72 h, the plates were washed 1× with PBS and resazurin solution (0.03 mg/mL in 1× PBS) was added. After 1 h of incubation, the fluorescence signal was recorded (ex./em. 560/590 nm).
(§3) The selectivity index (SI) was determined as the ratio of IC50 value for the non-cancerous cells to IC50 for the cancer cell line. For resistant cell lines, the collateral sensitivity (CS) was calculated as the ratio of IC50 value in sensitive tumour cells to IC50 in the resistant cancer cell line. In both cases, the selectivity is considered as: (1) strongly selective when SI or CS value is above 6, (2) moderately selective when SI or CS is between 3 and 6, (3) slightly selective when SI or CS is between 1 and 3 and (4) non-selective when SI or CS is less than 1[23].

[2] = tested on: MCF-7/PAX (paclitaxel-resistant sub-line); assay: Cytotoxic activity, 2D, resazurin, 72 h; assay type: cell-based, human
Description: as §1, §2, §3

[3] = tested on: MCF-7 (human breast adenocarcinoma); assay: Cytotoxic activity, 2D, resazurin, 72 h; assay type: cell-based
Description: as §1, §2, §3

[4] = tested on: HOC (human parental ovarian adenocarcinoma, A2780); assay: Cytotoxic activity, 2D, resazurin, 72 h; assay type: cell-based
Description: as §1, §2, §3

HOC/ADR = assay: Sensitization of MDR cell line to Adriamycin; assay type: cell-based, human; details: IC50 of Adriamycin / IC50 of Adriamycin with IC10 dose of compound
Description: To determine the sensitization potential of compounds, HOC/ADR and MCF-7/PAX were used. Based on the cytotoxic potential of the compounds against several cancer and non-cancerous cell lines (Table 1), the concentrations of applied compounds were adjusted. IC10 values was considered as the concentrations, which should not decrease the cell viability under 90%. After the addition of compounds, Adriamycin (concentration range 0.1–20 µM) and paclitaxel (concentration range 0.1–10 µM) were added to HOC/ADR and MCF-7/PAX, respectively. The sensitization potential of the compounds was determined as the ratio of the IC50 of cytostatic agent (Adriamycin/paclitaxel) to the IC50 of cytostatic agent affected by the compound in concentration corresponding to the IC10 value. Fold change greater than 1 indicated synergic effect of cytostatic agent and the tested compound.
After that, the plates were washed 1× with PBS and fresh DMEM medium supplemented with tested compounds at final concentration corresponding their IC10 value was added, except for positive control wells. Subsequently, Adriamycin (concentration range 0.1–20 µM) or paclitaxel (concentration range 0.1–10 µM) was added to the appropriate cell line for 72 h. After incubation, the cells were washed 1× with PBS and the resazurin solution (0.03 mg/mL) was added to evaluate the cell viability as described above. IC50 values of cytostatics were calculated for both the control and compounds; a fold change was counted up. When this fold change is higher than 1 indicates a synergism between the tested cytostatic agent and the compound, while a fold change lower than 1 means an antagonism. Fold change=IC50value of cytostatic treated cells only/IC50value of cytostatic treated cells in addition of the compound

[5] = tested on: HEK293 (human embryonic kidney cell line); assay: Cytotoxic activity, non-cancerous cell line, resazurin, 72 h; assay type: cell-based; details: Homo sapiens, HEK293; 72 h, mean ± SEM, n=3
Description: as §1, §2, §3

[6] = tested on: prostate metastatic cancer line; parameters: method as in PMID 21549092; details: cited from earlier work

C[S+](C)[O-] [DMSO (5% V/V), dimethyl sulfoxide, reference compound]
ROS(+) cells (HOC): 68.7 ± 1.9 %
ROS(−) cells (HOC): 31.8 ± 2.3 %

N#CC[Se]C(=O)c1cc(C(F)(F)F)cc(C(F)(F)F)c1 [N7]
IC10 ([1]; Homo sapiens, A2780 ADR, 72 h, HOC/ADR, concentration that should not decrease viability under 90%, read-out: IC10 of compounds): 3100 nM
IC50 ([1]; Homo sapiens, A2780 ADR, 2D, 72 h, mean ± SEM, n=3, read-out: HOC/ADR IC50): 5700 ± 200 nM
SI HEK293/HOC/ADR ([1]; IC50 HEK293 / IC50 HOC/ADR): 1.2 ± 0.1
IC50 ([2]; Homo sapiens, MCF7, 2D, 72 h, mean ± SEM, n=3, read-out: MCF-7/PAX IC50): 2700 ± 300 nM
SI HEK293/MC7-7/PAX ([2]; IC50 HEK293 / IC50 MCF-7/PAX): 2.5 ± 0.4
CS (collateral sensitivity index) ([2]; IC50 MCF-7 / IC50 MCF-7/PAX): 0.8 ± 0.1
IC50 ([3]; Homo sapiens, MCF7, 2D, 72 h, mean ± SEM, n=3, read-out: MCF-7 IC50): 2200 ± 100 nM
SI HEK293/MCF-7 ([3]; IC50 HEK293 / IC50 MCF-7): 3.0 ± 0.5
selectivity versus HEK293 (in words) ([3]; sensitive MCF-7): moderate selectivity
IC50 ([4]; Homo sapiens, A2780, 72 h, 2D, 72 h, mean ± SEM, n=3, read-out: HOC IC50): 2900 ± 100 nM
SI HEK293/HOC ([4]; IC50 HEK293 / IC50 HOC): 2.3 ± 0.3
Fold change (HOC/ADR): (1.1 ± 0.1)×
IC50 [5]: 6600 ± 600 nM

CC(=O)O[C@@]12CO[C@@H]1C[C@H](O)[C@@]1(C)C(=O)[C@H](O)C3=C(C)[C@@H](OC(=O)[C@H](O)[C@@H](NC(=O)OC(C)(C)C)c4ccccc4)C[C@@](O)([C@@H](OC(=O)c4ccccc4)[C@H]21)C3(C)C [docetaxel]
growth inhibition [6]: 22%

O=[Se]([O-])[O-].[Na+].[Na+] [sodium selenite]
growth inhibition [6]: 24%
